From patent US20250145564A1, “SULFONYLUREA COMPOUND, PREPARATION METHOD THEREFOR, AND APPLICATION THEREOF” (SHANGHAI INSTITUTE OF MATERIA MEDICA, CHINESE ACADEMY OF …, priority 2021, published 2025) come the findings set out here.

A value given as a limit tells only on which side of the number the result lay.

The first assay relates to mice with chronic heart failure (TAC). Description: TAC mouse model, comparison of I-23 and Empagliflozin. Format: in vivo. The conditions noted are these: mice, daily gavage eight weeks; I-23 0.44 mg/kg; Empagliflozin 10 mg/kg. The source says: 12-week-old male C57BL/6 mice, which were purchased from Gempharmatech Co., Ltd, were raised in the SPF animal house of Tongji Medical College, Huazhong University of Science and Technology. After one week of acclimatization in the animal house, the mice were subjected to thoracic aortic constriction as the TAC group. Another group of mice were subjected to thoracotomy without ligation of thoracic aorta as Sham group. Meanwhile, AUDA was used as the positive control.
Cardiac ultrasound detection was performed on a Visual Sonics Vevo 2100 small animal ultrasound imager. The major measurement indicators include heart rate (HR), left ventricular ejection fraction (LVEF), left ventricular fractional shortening (LVFS), left ventricular internal dimension-diastole (LVIDd) and left ventricular internal dimension-systole (LVIDs), and left ventricular posterior wall thickness (LVPWd and LVPWs).
The detection was performed on a Millar pressure-volume system from Millar Instr Ment PowerLab. After the animals were anesthetized to an appropriate extent, a midline incision was made in the neck, the right common carotid artery was separated, ligated at the distal end and clipped at the proximal end. A V-shaped incision was made on the artery with microscissors, and a microcatheter was inserted to the left ventricle. Signals were recorded through a conduction system to obtain hemodynamic data such as heart rate (HR), left ventricular end diastolic pressure (PED), left ventricular end systolic pressure (PES), maximum rate of decrease in left ventricular pressure (−dp/dtmin), and maximum rate of increase in left ventricular pressure (+dP/dtmax).
The myocardial tissue was placed in an embedding frame, soaked and fixed in neutral formaldehyde solution, dehydrated, and embedded in paraffin. The paraffin block was then sliced into sections with a thickness of 4 μm on a microtome. The general appearance of the myocardium was observed through HE staining, and the myocardial fibrosis was observed through Sirius red staining.
Total RNA was extracted using Invitrogen's Trizol reagent, then cDNA was obtained using TAKARA's reverse transcription kit, and finally the mRNA content of related genes was amplified with specific primers.
Cardiac ultrasound examination was performed two weeks after TAC surgery. 24 TAC mice with no significant difference in cardiac function were selected and randomly divided into a model group (TAC) and a treatment group (TAC+compound). The model group received no other treatment, while the treatment group received daily gavage (0.44 mg/kg for I-23 or 10 mg/kg for Empagliflozin). Eight weeks later, i.e., at the chronic heart failure phase, the animals were sacrificed, and tissue specimens were collected to perform the above detections.
This experiment was to compare the ameliorative effects of I-23 and Empagliflozin on chronic heart failure.
Take `OC[C@H]1O[C@@H](c2ccc(Cl)c(Cc3ccc(O[C@H]4CCOC4)cc3)c2)[C@H](O)[C@@H](O)[C@@H]1O` [Empagliflozin, reference compound]: the “cardiac hypertrophy (heart photographs, heart weight/tibia length HW/TL)” value was “reversal effect”; the “expression of BNP in mouse cardiomyocytes after TAC” value is “can inhibit this effect”; the “impaired cardiac function (EF value, FS value, LVIDs, dp/dt)” value is given as “can inhibit this effect”; the “positive area of Sirius red staining (myocardial fibrosis)” value was “can inhibit this effect”.

The target in another assay is T1, sEH (human recombinant) (Homo sapiens, UniProt P34913).
T1 sequence (P34913 1-555): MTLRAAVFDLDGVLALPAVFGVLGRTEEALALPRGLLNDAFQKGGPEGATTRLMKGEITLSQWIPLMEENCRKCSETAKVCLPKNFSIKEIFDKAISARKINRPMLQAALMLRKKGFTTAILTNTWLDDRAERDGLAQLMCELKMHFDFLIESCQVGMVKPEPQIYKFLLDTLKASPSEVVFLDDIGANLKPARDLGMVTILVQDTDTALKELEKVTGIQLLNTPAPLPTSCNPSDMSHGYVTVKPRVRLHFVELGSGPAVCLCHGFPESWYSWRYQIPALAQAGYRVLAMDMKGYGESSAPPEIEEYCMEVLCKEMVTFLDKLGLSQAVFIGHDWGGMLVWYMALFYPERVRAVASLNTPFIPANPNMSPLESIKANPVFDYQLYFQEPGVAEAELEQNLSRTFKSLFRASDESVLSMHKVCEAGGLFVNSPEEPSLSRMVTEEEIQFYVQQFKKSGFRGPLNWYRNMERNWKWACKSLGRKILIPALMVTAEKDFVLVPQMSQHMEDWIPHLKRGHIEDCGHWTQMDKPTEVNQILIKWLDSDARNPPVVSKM
Kind of assay: sEH inhibition assay (fluorescence).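 Also: enzyme preincubated with compound 30 min at 25 °C, then substrate added and fluorescence read after 15 min at 25 °C, 320 nm and 460 nm, versus DMSO negative control.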
Conditions: not given
`COc1ccc2c(c1)C(=O)N(CCc1ccc(S(=O)(=O)N(C)C(=O)NC3CCCCC3)cc1)C(=O)C2(C)C` [Compound I-2]: the half-inhibitory concentration (IC50) was under 0.2 µM.
Take `COc1ccc(Cl)cc1C(=O)NCCc1ccc(S(=O)(=O)N(C)C(=O)NC2CCCCC2)cc1` [Compound I-3]: the IC50 is under 0.2 µM.
For `CC(=O)c1ccc(S(=O)(=O)N(C)C(=O)NC2CCCCC2)cc1` [Compound I-5], the half-maximal inhibitory concentration (IC50) was in the range of 0.2 to 1 µM.
On to `C=CCN(C(=O)N[C@H]1CC[C@H](C)CC1)S(=O)(=O)c1ccc(CCNC(=O)N2CC(C)=C(CC)C2=O)cc1` [Compound I-6], for which the IC50 was in the range of 1 to 10 µM.
`Cc1ccc(S(=O)(=O)N(C(=O)NN2CC3CCCC3C2)C(C)C)cc1` (stereo not drawn) [Compound I-7]: the IC50 was 1 to 10 µM.
On the same count and under the same terms, then `CCC1=C(C)CN(C(=O)NCCc2ccc(S(=O)(=O)N(C(=O)N[C@H]3CC[C@H](C)CC3)C3CC3)cc2)C1=O` [Compound I-8], with 1 to 10 µM.
In the case of `CCC1=C(C)CN(C(=O)NCCc2ccc(S(=O)(=O)N(C)C(=O)N[C@H]3CC[C@H](CO)CC3)cc2)C1=O` [Compound I-9], the IC50 was 0.2 to 1 µM.
Still for that read-out and setting: with `CCNC(=O)OC[C@H]1CC[C@H](NC(=O)NS(=O)(=O)c2ccc(CCNC(=O)N3CC(C)=C(CC)C3=O)cc2)CC1` [Compound I-10] the figure was 0.2 to 1 µM; with `CCNC(=O)OC[C@H]1CC[C@H](NC(=O)N(C)S(=O)(=O)c2ccc(CCNC(=O)N3CC(C)=C(CC)C3=O)cc2)CC1` [Compound I-11], under 0.2 µM.
The same measure, in the same setting: with `CCC1=C(C)CN(C(=O)NCCc2ccc(S(=O)(=O)NC(=O)N[C@H]3CC[C@H](COC(=O)NC4CC4)CC3)cc2)C1=O` [Compound I-12] the figure was 0.2 to 1 µM.
Still for that read-out and setting: then `CCC1=C(C)CN(C(=O)NCCc2ccc(S(=O)(=O)NC(=O)N[C@H]3CC[C@H](COC(=O)Nc4ccc(OC(F)(F)F)cc4)CC3)cc2)C1=O` [Compound I-13], with 1 to 10 µM; and `CCC1=C(C)CN(C(=O)NCCc2ccc(S(=O)(=O)NC(=O)N[C@H]3CC[C@H](COC(=O)CN(C)C)CC3)cc2)C1=O` [Compound I-14], with 10 to 100 µM; and `CCC1=C(C)CN(C(=O)NCCc2ccc(S(=O)(=O)NC(=O)N[C@H]3CC[C@H](COC(=O)CN4CCCCC4)CC3)cc2)C1=O` [Compound I-16], with 0.2 to 1 µM.
Regarding `CCC1=C(C)CN(C(=O)NCCc2ccc(S(=O)(=O)NC(=O)N[C@H]3CC[C@H](C(=O)OC(C)OC(=O)OC4CCCCC4)CC3)cc2)C1=O` (stereo partly drawn) [Compound I-17], the concentration for half-maximal inhibition (IC50) lay within 10 to 100 µM.
On to `CCC1=C(C)CN(C(=O)NCCc2ccc(S(=O)(=O)NC(=O)N[C@H]3CC[C@H](COP(=O)(OCOC(=O)OC(C)C)OCOC(=O)OC(C)C)CC3)cc2)C1=O` [Compound I-18], for which the IC50 fell in the range of 10 to 100 µM.
On the same count and under the same terms, then `CCC1=C(C)CN(C(=O)NCCc2ccc(S(=O)(=O)NC(=O)N[C@H]3CC[C@H](CO[P@](=O)(N[C@@H](C)C(=O)OC(C)C)Oc4ccccc4)CC3)cc2)C1=O` [Compound I-19], with 10 to 100 µM; and `CCC1=C(C)CN(C(=O)NCCc2ccc(S(=O)(=O)N(C)C(=O)N[C@H]3CC[C@H](COCP(=O)(OCOC(=O)OC(C)C)OCOC(=O)OC(C)C)CC3)cc2)C1=O` [Compound I-21], with 10 to 100 µM; and `CCC1=C(C)CN(C(=O)NCCc2ccc(S(=O)(=O)N(C)C(=O)N[C@H]3CC[C@H](CO[P@](=O)(N[C@@H](C)C(=O)OC(C)C)Oc4ccccc4)CC3)cc2)C1=O` [Compound I-22], with 10 to 100 µM.
As to `CCC1=C(C)CN(C(=O)NCCc2ccc(S(=O)(=O)N(C)C(=O)N[C@H]3CC[C@H](COC(C)=O)CC3)cc2)C1=O` [Compound I-24], the concentration for half-maximal inhibition (IC50) fell in the range of 1 to 10 µM.
`CCC1=C(C)CN(C(=O)NCCc2ccc(S(=O)(=O)NC(=O)N[C@H]3CC[C@H](COC)CC3)cc2)C1=O` [Compound I-25]: the IC50 fell in the range of 0.2 to 1 µM.
Still for that read-out and setting: with `CCC1=C(C)CN(C(=O)NCCc2ccc(S(=O)(=O)NC(=O)NC3CCC(C(=O)OC)CC3)cc2)C1=O` (stereo not drawn) [Compound I-26] the figure was 1 to 10 µM; with `CCC1=C(C)CN(C(=O)NCCc2ccc(S(=O)(=O)N(C)C(=O)NC3CCC(C(=O)O)CC3)cc2)C1=O` (stereo not drawn) [Compound I-27], 10 to 100 µM.
The same measure, in the same setting: with `CCC1=C(C)CN(C(=O)NCCc2ccc(S(=O)(=O)NC(=O)NC3CCC(C(=O)NC)CC3)cc2)C1=O` (stereo not drawn) [Compound I-29] the figure was 1 to 10 µM; with `CCCC1=C(C)CN(C(=O)NCCc2ccc(S(=O)(=O)NC(=O)NC3CCC(C(=O)OC)CC3)cc2)C1=O` (stereo not drawn) [Compound I-30], 10 to 100 µM.
On the same count and under the same terms, then `CCC1=C(C)CN(C(=O)NCCc2ccc(S(=O)(=O)NC(=O)N[C@H]3CC[C@H](OC(N)=O)CC3)cc2)C1=O` [Compound I-31], with 1 to 10 µM.
`Cc1cnc(C(=O)NCCc2ccc(S(=O)(=O)N(C)C(=O)NC3CCCCC3)cc2)cn1` [Compound I-32]: the IC50 fell in the range of 1 to 10 µM.
Still for that read-out and setting: with `Cc1ccc(S(=O)(=O)N(C)C(=O)NN2CCCCCC2)cc1` [Compound I-33] the figure was 1 to 10 µM; with `CCC1=C(C)CN(C(=O)NCCc2ccc(S(=O)(=O)N(C)C(=O)NC3CCC(CC)CC3)cc2)C1=O` (stereo not drawn) [Compound I-34], 1 to 10 µM.
Still for that read-out and setting: with `Cc1cc(C(=O)NCCc2ccc(S(=O)(=O)N(C)C(=O)NN3CCCCCC3)cc2)no1` [Compound I-35] the figure was 1 to 10 µM; with `Cc1ccc(S(=O)(=O)N(C)C(=O)NC2[C@@H](O)C3(C)CC[C@@H]2C3(C)C)cc1` (stereo partly drawn) [Compound I-36], 1 to 10 µM.
The same measure, in the same setting: then `CCC1=C(C)CN(C(=O)NCCc2ccc(S(=O)(=O)N(CC)C(=O)N[C@H]3CC[C@H](C)CC3)cc2)C1=O` [Compound I-37], with 1 to 10 µM; and `CCC1=C(C)CN(C(=O)NCCc2ccc(S(=O)(=O)N(C(=O)N[C@H]3CC[C@H](C)CC3)C(C)C)cc2)C1=O` [Compound I-38], with 1 to 10 µM; and `CCC(=O)OC[C@H]1CC[C@H](NC(=O)NS(=O)(=O)c2ccc(CCNC(=O)N3CC(C)=C(CC)C3=O)cc2)CC1` [Compound I-39], with 1 to 10 µM.
Regarding `CCC(=O)OC[C@H]1CC[C@H](NC(=O)N(C)S(=O)(=O)c2ccc(CCNC(=O)N3CC(C)=C(CC)C3=O)cc2)CC1` [Compound I-40], the IC50 was in the range of 1 to 10 µM.
Take `CCC1=C(C)CN(C(=O)NCCc2ccc(S(=O)(=O)NC(=O)N[C@H]3CC[C@H](COC(=O)C(C)C)CC3)cc2)C1=O` [Compound I-41]: the concentration for half-maximal inhibition (IC50) lay within 1 to 10 µM.
Still for that read-out and setting: with `CCC1=C(C)CN(C(=O)NCCc2ccc(S(=O)(=O)N(C)C(=O)N[C@H]3CC[C@H](COC(=O)C(C)C)CC3)cc2)C1=O` [Compound I-42] the figure was 1 to 10 µM.
Still for that read-out and setting: then `CCC1=C(C)CN(C(=O)NCCc2ccc(S(=O)(=O)NC(=O)N[C@H]3CC[C@H](COC(=O)C(C)(C)C)CC3)cc2)C1=O` [Compound I-43], with 1 to 10 µM; and `CCC1=C(C)CN(C(=O)NCCc2ccc(S(=O)(=O)N(C)C(=O)N[C@H]3CC[C@H](COC(=O)C(C)(C)C)CC3)cc2)C1=O` [Compound I-44], with 1 to 10 µM.

Broadly, the IC50 is the concentration that inhibits the measured activity by half.
